Experimental data as given in patent US20160229835A1, “NOVEL PYRIDYLOXYACETYL TETRAHYDROISOQUINOLINE COMPOUNDS USEFUL AS NAMPT INHIBITORS” (ELI LILLY AND COMPANY, priority 2013, published 2016).

Key:
[1] = test system: NAMPT-mediated NAD+/NMN formation in A2780 tumor cells; assay: Assay for NAD+/NMN Levels in A2780 Cells; format: cell-based; conditions: Homo sapiens, A2780, 24 h, 24 hours treatment, averaged
Description: A2780 (the NCI-DCTD Tumor repository) tumor cells, an ovarian cancer cell line, are cultured in RPMI 1640 (SH30255.01, Hyclone) supplemented with 10% FBS. […] FK866 (100 nM) is also included as a positive control for maximum inhibition (100%). Each compound is tested 1-4 times in this assay.
To assess NAD^+/NMN levels in the cell, A2780 cells grown in the above referenced 96-well plates are lysed with RIPA buffer (Pierce) followed by addition of 50 μL of 0.2 N HCl. The resulting cell lysates are incubated at 60° C. for 10 minutes and neutralized with 50 μL of 0.2 N NaOH. After centrifugation at 2000×g for 15 minutes, the supernatants (50 μL) are collected. The NAD^+/NMN assays are described by Putt and Hergenrother (Putt, K. S, and Hergenrother, P. J., An enzymatic assay for poly(ADP-ribose) polymerase-1 (PARP-1) via the chemical quantitation of NAD^+: application to the high-throughput screening of small molecules as potential inhibitors. Analytical Biochemistry, 2004, 326, 78-86) with modifications. The resulting lysates are mixed with 20 μL of 0.2 N KOH and 20 μL of 20% acetophenone, and incubated at 90° C. for 10 minutes followed by addition of 90 μL of formic acid. After incubation at 90° C. for 10 minutes, the resulting preparations are measured for their fluorescence at the excitation and emission wavelength of 360 and 450 nm, respectively as described by Putt and Hergenrother (2004).

[2] = test system: A2780 cells; assay: A2780 Proliferation Assay ±NAM (Nicotinamide); format: cell-based; conditions: Homo sapiens, A2780, 72 h, absence of NAM, read-out: IC50 (proliferation of A2780 cells in the absence of NAM)
Description: The purpose of this assay is to measure the ability of a compound to inhibit proliferation of A2780 cells (the NCI-DCTD Tumor repository) dependent on the NAMPT-mediated NAD^+ formation in the presence or absence of higher concentrations of NAM (10 mM) in vitro. The A2780 cell proliferation assay uses assay-ready frozen cells. To prepare assay-ready frozen A2780 cells, A2780 cells, an ovarian cancer cell line, are cultured in growth media containing RPMI 1640 (Gibco 30-2001) supplemented with 10% FBS, in T-150 flasks for 3-4 days. Cells are then treated with 4 mL of 0.25% (v/v) trypsin for 1 minute (Hyclone SH30042). Trypsin-treated cells are then diluted with 10 mL of growth media, and the cell slurry is gently mixed and then decanted to a centrifuge tube. Cells are counted and then pelleted by centrifugation at 1400 rpm for 5 minutes. After centrifugation the supernatant is removed and the cell pellets are re-suspended in GIBCO® RECOVERY™ Cell Culture Freezing Medium (Invitrogen 12648-010) at 2-5×10^6 cells/mL and then aliquoted at 1 mL volumes into cryovials. Cryovials are stored initially at −80° C. for 16 hours, and then transferred to liquid nitrogen for long term storage.
One day before the planned initiation of compound treatment portion of the assay, one vial of assay ready frozen cells is thawed, and the cells are washed with 50 mL of growth medium. Cells are counted and then diluted to 2.8×10^4 cells/mL and then plated at a rate of 2500 cells/well (90 μL per well) to BD Poly-D-Lysine, 96 well black plates (BD Biocoat 35-4640). Plates are then covered and incubated overnight under 5% CO2 at 37° C. The next day in a separate plate (V bottom Nunc 249946), a ten-point compound dilution series for each compound is prepared in growth media containing 2% DMSO (v/v, 0.2% final) with or without 100 mM NAM (10 mM final). Then 10 μL of compounds after a ten-point series dilution from either 2 or 0.1 μM (depending potency of each compound) to 50 pM or 5 pM (final) are added to the wells of the cell plates. Cell plates are covered and incubated for 72 hours under 5% CO2 at 37° C.
On the day of the viability assessment, one vial of GF-AFC substrate (CELL TITER-FLUOR™ Cell Viability Assay Kit, Promega G6081) is vortexed and the substrate is transferred to one vial of thawed CELL TITER-FLUOR™ Assay Buffer. The resulting CELL TITER-FLUOR™ reagent is then vortexed well to thoroughly dissolve the substrate. The CELL TITER-FLUOR™ reagent is then diluted (1:2) in growth medium and 50 μL of diluted CELL TITER-FLUOR™ reagent is added to each well of the cell plate. The cell plate is covered and incubated under 5% CO2 at 37° C. for 1-3 hours. Finally the cell plates are removed from the incubator and the well fluorescence is measured on an Envision® Multilabel Reader (Perkin Elmer, λeX 355/λem 495). Fluorescence from compound treated wells is compared to the no cell and no compound treatment control wells to calculate percent inhibition. The percent inhibition and ten-point compound concentration data is fit to a four-parameter logistic equation using ACTIVITYBASE 4.0 Equation 205. Each compound is tested 2-4 times in this assay.

IC50 [1]	IC50 [2]	Compound
≤ 195 nM	< 677 nM	CC(c1ccc2c(c1)CCN(C(=O)COc1cccnc1)C2)N1CCN(C(=O)C2CCOCC2)CC1 (single isomer, unassigned; isomer 2) [Example 20, 2-(3-Pyridyloxy)-1-[6-[1-[4-(tetrahydropyran-4-carbonyl)piperazin-1-yl]ethyl]-3,4-dihydro-1H-isoquinolin-2-yl]ethanone (isomer 2)]
≤ 195 nM	< 677 nM	CC(C)(C)CC(=O)Nc1ccc2c(c1)CCN(C(=O)COc1cccnc1)C2 [Example 14, 3,3-Dimethyl-N-{2-[(pyridin-3-yloxy)acetyl]-1,2,3,4-tetrahydroisoquinolin-6-yl}butanamide]
≤ 195 nM	< 677 nM	CC(C)(O)CC(=O)Nc1ccc2c(c1)CCN(C(=O)COc1cccnc1)C2 [Example 15, 3-Hydroxy-3-methyl-N-{2-[(pyridin-3-yloxy)acetyl]-1,2,3,4-tetrahydroisoquinolin-6-yl}butanamide]
≤ 195 nM	< 677 nM	O=C(COc1cccnc1)N1CCc2cc(CN3CCN(C(=O)C4CCOCC4)CC3)ccc2C1 [Example 16, 2-(Pyridin-3-yloxy)-1-[6-{[4-(tetrahydro-2H-pyran-4-ylcarbonyl)piperazin-1-yl]methyl}-3,4-dihydroisoquinolin-2(1H)-yl]ethanone]
≤ 195 nM	< 677 nM	O=C(CN1CCOCC1)N1CCN(Cc2ccc3c(c2)CCN(C(=O)COc2cccnc2)C3)CC1 [Example 17, 2-(Morpholin-4-yl)-1-[4-({2-[(pyridin-3-yloxy)acetyl]-1,2,3,4-tetrahydroisoquinolin-6-yl}methyl)piperazin-1-yl]ethanone]
≤ 195 nM	< 677 nM	CC(C)(O)CC(=O)N1CCN(Cc2ccc3c(c2)CCN(C(=O)COc2cccnc2)C3)CC1 [Example 18, 3-Hydroxy-3-methyl-1-[4-({2-[(pyridin-3-yloxy)acetyl]-1,2,3,4-tetrahydroisoquinolin-6-yl}methyl)piperazin-1-yl]butan-1-one]
≤ 195 nM	< 677 nM	O=C(CC1CCOCC1)N1CCN(Cc2ccc3c(c2)CCN(C(=O)COc2cccnc2)C3)CC1 [Example 19, 2-(Pyridin-3-yloxy)-1-[6-{[4-(tetrahydro-2H-pyran-4-ylacetyl)piperazin-1-yl]methyl}-3,4-dihydroisoquinolin-2(1H)-yl]ethanone]

More lines, now with the values behind:

Compound	IC50 [1]	IC50 [2]
O=C(CC1CCCCO1)Nc1ccc2c(c1)CCN(C(=O)COc1cccnc1)C2 (single isomer, unassigned; isomer 2) [Example 13, N-[2-[2-(3-Pyridyloxy)acetyl]-3,4-dihydro-1H-isoquinolin-6-yl]-2-tetrahydropyran-2-yl-acetamide (isomer 2)]	≤ 195 nM	< 677 nM
O=C(COc1cccnc1)N1CCc2cc(NS(=O)(=O)c3ccccn3)ccc2C1 [Example 3, N-{2-[(Pyridin-3-yloxy)acetyl]-1,2,3,4-tetrahydroisoquinolin-6-yl}pyridine-2-sulfonamide]	≤ 195 nM	< 677 nM
O=C(COc1cccnc1)N1CCc2cc(NS(=O)(=O)C3CCOCC3)ccc2C1 [Example 4, N-{2-[(Pyridin-3-yloxy)acetyl]-1,2,3,4-tetrahydroisoquinolin-6-yl}tetrahydro-2H-pyran-4-sulfonamide]	≤ 195 nM	< 677 nM
O=C(COc1cccnc1)N1CCc2cc(NS(=O)(=O)CCC(F)(F)F)ccc2C1 [Example 5, 3,3,3-Trifluoro-N-{2-[(pyridin-3-yloxy)acetyl]-1,2,3,4-tetrahydroisoquinolin-6-yl}propane-1-sulfonamide]	≤ 195 nM	< 677 nM
O=C(COc1cccnc1)N1CCc2cc(NS(=O)(=O)CC3CC3)ccc2C1 [Example 6, 1-Cyclopropyl-N-{2-[(pyridin-3-yloxy)acetyl]-1,2,3,4-tetrahydroisoquinolin-6-yl}methanesulfonamide]	≤ 195 nM	< 677 nM
CC(C)OCCS(=O)(=O)Nc1ccc2c(c1)CCN(C(=O)COc1cccnc1)C2 [Example 7, 2-Isopropoxy-N-[2-[2-(3-pyridyloxy)acetyl]-3,4-dihydro-1H-isoquinolin-6-yl]ethanesulfonamide]	≤ 195 nM	< 677 nM
O=C(COc1cccnc1)N1CCc2cc(NS(=O)(=O)C3CCN(C4COC4)CC3)ccc2C1 [Example 8, 1-(Oxetan-3-yl)-N-[2-[2-(3-pyridyloxy)acetyl]-3,4-dihydro-1H-isoquinolin-6-yl]piperidine-4-sulfonamide]	≤ 195 nM	< 677 nM
CN1CCC(S(=O)(=O)Nc2ccc3c(c2)CCN(C(=O)COc2cccnc2)C3)CC1 [Example 9, 1-Methyl-N-{2-[(pyridin-3-yloxy)acetyl]-1,2,3,4-tetrahydroisoquinolin-6-yl}piperidine-4-sulfonamide]	≤ 195 nM	< 677 nM
O=C(COc1cccnc1)N1CCc2cc(NS(=O)(=O)C3CCN(C(=O)C4CCOCC4)CC3)ccc2C1 [Example 10, N-[2-[2-(3-Pyridyloxy)acetyl]-3,4-dihydro-1H-isoquinolin-6-yl]-1-(tetrahydropyran-4-carbonyl)piperidine-4-sulfonamide]	≤ 195 nM	< 677 nM
CCC(C)(O)CC(=O)Nc1ccc2c(c1)CCN(C(=O)COc1cccnc1)C2 (stereo not drawn) [Example 11, 3-Hydroxy-3-methyl-N-[2-[2-(3-pyridyloxy)acetyl]-3,4-dihydro-1H-isoquinolin-6-yl]pentanamide]	≤ 195 nM	< 677 nM
CC(O)(CC(=O)Nc1ccc2c(c1)CCN(C(=O)COc1cccnc1)C2)C(F)(F)F (stereo not drawn) [Example 12, 4,4,4-Trifluoro-3-hydroxy-3-methyl-N-[2-[2-(3-pyridyloxy)acetyl]-3,4-dihydro-1H-isoquinlin-6-yl]butanamide]	≤ 195 nM	< 677 nM
